Here are results for one compound from article PMC8010149, “A Therapeutic Strategy to Combat HIV-1 Latently Infected Cells With a Combination of Latency-Reversing Agents Containing DAG-Lactone PKC Activators” (Frontiers in Microbiology, 2021).

Series [1] deals with HIV-1 in CD4+ T cells from HIV-1-infected individuals. Nature of the series: Ex vivo reactivation, intracellular HIV-1 mRNA in primary CD4+ T cells from HIV-1-infected individuals. The note with it: 10 μM YSE028, 24 h, seven individuals. It is filed as cell-based. The protocol: Primary cells were isolated from seven HIV-1^+ individuals, and ex vivo reactivation experiments were conducted as previously described ([Matsuda et al., 2019]). In brief, peripheral blood samples were collected from HIV-1-infected participants receiving cART for at least 5 years (Table 1). All subjects maintained a low viral load (<20 copies/ml, except for occasional “blips”) during therapy. CD4^+ T cell counts in peripheral blood samples ranged from 477 to 992 cells/mm^3 (average: 631 cells/mm^3), and plasma viral loads were <20 copies/ml (except for one participant whose viral load was 22 copies/ml) as measured by quantitative PCR (qPCR; COBAS AmpliPrep/COBAS TaqMan HIV-1 Test version 2.0; Roche Diagnostics, Basel, Switzerland) at the time of study enrollment. The Ethics Committee at the National Center for Global Health and Medicine approved this study (NCGM-G-002259-00), and each patient provided written informed consent. […] The number of HIV-1 RNA copies was calculated using a standard curve obtained from serially diluted HIV-1pNL4-3 plasmid, and normalized values [HIV-1 RNA copies/input RNA (ng)] for each drug were compared to those without drug treatment. The relative increase in HIV-1 RNA levels in the presence of each drug or combination was then determined.

In series [2] the test system is U1 cells. Nature of the series: Active caspase-3 by flow cytometry in U1 cells. It is filed as cell-based. The note with it: 10 µM, 24 h. The procedure:
The amount of intracellular HIV-1 p24 and the active form of caspase-3 were determined by flow cytometry, as previously described ([Matsuda et al., 2015], [2019]). In brief, ACH-2 and U1 cells (2.5 × 10^5 cells/ml) were fixed with 1% paraformaldehyde/PBS for 20 min and permeabilized with Flow Cytometry Perm Buffer (TONBO Biosciences, San Diego, CA, United States). After 5 min of incubation at room temperature, the cells were stained with FITC anti-HIV-1 p24 (24-4) monoclonal antibody (mAb; Santa Cruz Biotechnology, Dallas, TX, United States) or Alexa Fluor 647-conjugated anti-active caspase-3 (C92-605) mAb (BD Pharmingen, San Diego, CA, United States) for 30 min on ice. For T cell activation and exhaustion marker staining, PBMCs from healthy donors separated by the above density gradient centrifugation method were incubated with fixable viability stain Ghost Dye 780 (TONBO Biosciences) for 30 min on ice. […] Next, the cells were analyzed using BD FACSVerse (BD Biosciences). […] The collected data were analyzed using FlowJo software (Tree Star, San Carlos, CA, United States).
For orientation: In flow cytometry, cells or beads pass a laser one at a time.

Series [3] is described as follows: Pharmacokinetics in mice, plasma concentration by LC-MS/MS. The note with it: BALB/c mice, 10 mg/kg subcutaneous. It is filed as in vivo. The procedure:
Blood was drawn from mice at 0.5, 1, 3, 6, 12, and 24 h after subcutaneous administration of YSE028 at a dose of 10 mg/kg. Plasma samples were prepared on ice. Blood was collected in a heparin tube and then separated at 5,000 rpm for 10 min at 4°C. Two hundred microliter of MeOH was added to 40 μl of mouse plasma immediately after plasma collection to terminate the enzymatic hydrolysis of YSE028 during sample preparation. All samples were vortexed for 10s and centrifuged at 12,000 g for 10 min at 4°C. The supernatant was then separated. Alectinib (10 ng/ml) in MeOH was used as an internal standard (IS) and added to the supernatant for liquid chromatography tandem mass spectrometry (LC-MS/MS) analysis.
A Nexera X2 UHPLC system (Shimadzu, Kyoto, Japan) connected to a QTRAP5500 mass spectrometer (AB SCIEX, Framingham, MA, United States) was used for LC-MS/MS analysis. The separation of YSE028 and alectinib (IS) was performed using an XBridge C18 column (2.1 × 50 mm, 3.5 μm, Waters). The mobile phases consisted of 10 mM ammonium formate (A) and MeOH (B). The run time was 6 min with a flow rate of 0.5 ml/min. The oven temperature was set to 40°C, and the autosampler chamber was maintained at 4°C. The gradient elution program was set as follows: 0–3.0 min, 60–80% B; 3.1 min–4.0 min, 95% B; and 4.1 min–6 min, 60% B. The sample injection volume was 5 μl. The electrospray ionization interface in positive mode was used to perform tandem mass spectrometry (MS/MS). The MRM transition for YSE028 was m/z 313.1→187.1. The MS parameters were optimized as follows: desolvation temperature, 500°C; curtain gas (CUR), 40; collision gas (CAD), 7; ionspray voltage (IS), 4500v; ion source gas (GS1), 50 psi; ion source gas (GS2), 80 psi; declustering potential (DP), 110 v; entrance potential (EP), 10v; collision energy (CE), 13v; collision cell exit potential (CXP), 20v.

The test system of series [4] is CD8+PD1+CD38+ primary T cells. Briefly: Immune exhaustion markers, CD8+PD1+CD38+ primary T cells. It is filed as cell-based, human. To be noted: PBMCs from healthy donors, 24 h. The procedure:
The amount of intracellular HIV-1 p24 and the active form of caspase-3 were determined by flow cytometry, as previously described ([Matsuda et al., 2015], [2019]). In brief, ACH-2 and U1 cells (2.5 × 10^5 cells/ml) were fixed with 1% paraformaldehyde/PBS for 20 min and permeabilized with Flow Cytometry Perm Buffer (TONBO Biosciences, San Diego, CA, United States). After 5 min of incubation at room temperature, the cells were stained with FITC anti-HIV-1 p24 (24-4) monoclonal antibody (mAb; Santa Cruz Biotechnology, Dallas, TX, United States) or Alexa Fluor 647-conjugated anti-active caspase-3 (C92-605) mAb (BD Pharmingen, San Diego, CA, United States) for 30 min on ice. For T cell activation and exhaustion marker staining, PBMCs from healthy donors separated by the above density gradient centrifugation method were incubated with fixable viability stain Ghost Dye 780 (TONBO Biosciences) for 30 min on ice. The cells were then stained with Brilliant Violet 510 anti-human CD3 (UCHT1) mAb (BioLegend), FITC anti-human CD4 (RPA-T4) mAb (TONBO Biosciences), PE-Cy7 anti-human CD8a (RPA-T8) mAb (TONBO Biosciences), PerCP-Cy5.5 anti-human CD38 (HB-7) mAb (BioLegend), PE anti-human CD69 (FN50) mAb (BioLegend), or Alexa Fluor 647 anti-human CD279/PD-1 (EH12.1) mAb (BD Biosciences, San Jose, CA, United States) for 30 min on ice. Next, the cells were analyzed using BD FACSVerse (BD Biosciences). In the analysis, unstained cells were used as a negative control to set the gating for each experiment. The collected data were analyzed using FlowJo software (Tree Star, San Carlos, CA, United States).

A value given as a limit tells only on which side of the number the result lay.

`CCCC(CCC)C(=O)OCC1(CO)CC(=C(C)C)C(=O)O1` (stereo not drawn) [YSE028]: in series [1], the “HIV-1 mRNA compared to no drug control” value came out at 1.66 fold. Further, in series [2], the caspase-3 activation is on record as 22.7%. Also, the “time within which the concentration in blood decreased rapidly” value in series [3] was at most 3 h. Besides, the “peak concentration (median)” value in series [3] (plasma) amounted to 5.14 ng/mL. Besides, the Tmax in series [3] (mouse, sc, plasma, read-out: time of peak concentration) amounted to 1 h. For the same compound, in series [4], the “increase in CD8+ PD1+ CD38+ T cells” value was “only moderate”.
